We go through 15 compounds from the NIST ThermoML archive (doi:10.1016/j.jct.2012.12.025).

± gives the expanded uncertainty stated by the source.

Assay in one data set: not given
Conditions: 298.15 K; 101.33 kPa; Liquid; Pycnometric method.
Take `CCOC(=O)OCC` [diethyl carbonate]: the mass density is listed as 970 ± 100 kg/m3.

For `COC(=O)OC` [dimethyl carbonate], the mass density turned out to be 1070 ± 100 kg/m3.

Take `CCOC(=O)OC` [ethyl methyl carbonate]: the mass density is recorded as 1010 ± 100 kg/m3.

For `O=C1OCCO1` [ethylene carbonate], the mass density is 1350 ± 100 kg/m3.

A further data set can be described thus: wn = mass fraction of the nth substance listed. As to conditions: 298.15 K; 101 kPa; Liquid; Pycnometric method; w1 = 0.5.
Consider `O=C1OCCO1` [ethylene carbonate] + CCOC(=O)OCC, for which the mass density was determined as 1090 ± 100 kg/m3.

For `O=C1OCCO1` [ethylene carbonate] + COC(=O)OC, the mass density is reported as 1230 ± 100 kg/m3.

The data set is the same for the next values; noted with them: 298.15 K; 101 kPa; Liquid; Pycnometric method; w2 = 0.5.
Regarding `CCOC(=O)OC` [ethyl methyl carbonate] + O=C1OCCO1, the mass density was found to be 1190 ± 100 kg/m3.

A short description of a further data set: cn = amount concentration of the nth substance listed, in mol/dm3. As to conditions: 298.15 K; 101 kPa; Liquid; Pycnometric method; c1 = 1.
On to `O=S(=O)([N-]S(=O)(=O)C(F)(F)F)C(F)(F)F.[Li+]` [lithium bis((trifluoromethyl)sulfonyl)amide] + CCOC(=O)OCC, for which the mass density is 1100 ± 100 kg/m3.

With `O=S(=O)([N-]S(=O)(=O)C(F)(F)F)C(F)(F)F.[Li+]` [lithium bis((trifluoromethyl)sulfonyl)amide] + COC(=O)OC, the mass density was found to be 1160 ± 100 kg/m3.

In the case of `O=S(=O)([N-]S(=O)(=O)C(F)(F)F)C(F)(F)F.[Li+]` [lithium bis((trifluoromethyl)sulfonyl)amide] + O=C1OCCO1, the mass density is 1420 ± 100 kg/m3.

For `F[P-](F)(F)(F)(F)F.[Li+]` [lithium hexafluorophosphate] + CCOC(=O)OC, the mass density was 1090 ± 100 kg/m3.

Take `F[P-](F)(F)(F)(F)F.[Li+]` [lithium hexafluorophosphate] + CCOC(=O)OCC: the mass density is given as 1050 ± 100 kg/m3.

`F[P-](F)(F)(F)(F)F.[Li+]` [lithium hexafluorophosphate] + COC(=O)OC: the mass density is on record as 1140 ± 100 kg/m3.

On to `F[P-](F)(F)(F)(F)F.[Li+]` [lithium hexafluorophosphate] + O=C1OCCO1, for which the mass density was 1400 ± 100 kg/m3.

Still in this data set, the particulars now being: 298.15 K; 101 kPa; Liquid; Pycnometric method; c2 = 1.
With `CCOC(=O)OC` [ethyl methyl carbonate] + O=S(=O)([N-]S(=O)(=O)C(F)(F)F)C(F)(F)F.[Li+], the mass density came to 1130 ± 100 kg/m3.

For orientation: mass density means mass per unit of volume.
